According to the NIST ThermoML archive (doi:10.1016/j.jct.2019.05.002):
Numbers after ± are expanded uncertainties.

Assay: xn = mol fraction of the nth substance listed
Details: 100 kPa, Liquid; for speed of sound: Frequency=3 MHz, Single path-length method; for mass density: Vibrating tube method

OCCCCO [1,4-butanediol] + CCCC(=O)OCC gave a speed of sound (298.15 K, x2 = 0) of 1601.9 ± 1.1 m/s, a speed of sound (298.15 K, x2 = 0.1009) of 1558.5 ± 1.1 m/s and a speed of sound (298.15 K, x2 = 0.1986) of 1516.5 ± 1.1 m/s. For the same compound, the speed of sound (298.15 K, x2 = 0.3254) was 1461.9 ± 1.1 m/s, the speed of sound (298.15 K, x2 = 0.4231) was 1419.9 ± 1.1 m/s and the speed of sound (298.15 K, x2 = 0.5008) was 1386.5 ± 1.1 m/s. For the same compound, the speed of sound (298.15 K, x2 = 0.5895) was 1348.4 ± 1 m/s, the speed of sound (298.15 K, x2 = 0.7128) was 1295.3 ± 1 m/s and the speed of sound (298.15 K, x2 = 0.8015) was 1257.2 ± 1 m/s. For the same compound, the speed of sound (298.15 K, x2 = 0.9105) was 1210.3 ± 1 m/s, the mass density (298.15 K, x2 = 0) was 1012.8 ± 2 kg/m3 and the mass density (298.15 K, x2 = 0.1009) was 998.83 ± 2 kg/m3. It also gave a mass density (298.15 K, x2 = 0.1986) of 985.3 ± 2 kg/m3, a mass density (298.15 K, x2 = 0.3254) of 967.74 ± 2 kg/m3 and a mass density (298.15 K, x2 = 0.4231) of 954.2 ± 2 kg/m3. It also gave a mass density (298.15 K, x2 = 0.5008) of 943.44 ± 2 kg/m3, a mass density (298.15 K, x2 = 0.5895) of 931.16 ± 2 kg/m3 and a mass density (298.15 K, x2 = 0.7128) of 914.08 ± 2 kg/m3. It also gave a mass density (298.15 K, x2 = 0.8015) of 901.8 ± 2 kg/m3, a mass density (298.15 K, x2 = 0.9105) of 886.7 ± 2 kg/m3 and a speed of sound (303.15 K, x2 = 0) of 1590.3 ± 1.1 m/s. It also gave a speed of sound (303.15 K, x2 = 0.1009) of 1545.9 ± 1.1 m/s, a speed of sound (303.15 K, x2 = 0.1986) of 1503 ± 1.1 m/s and a speed of sound (303.15 K, x2 = 0.3254) of 1447.4 ± 1.1 m/s. It also gave a speed of sound (303.15 K, x2 = 0.4231) of 1404.4 ± 1.1 m/s, a speed of sound (303.15 K, x2 = 0.5008) of 1370.3 ± 1.1 m/s and a speed of sound (303.15 K, x2 = 0.5895) of 1331.4 ± 1 m/s. For the same compound, the speed of sound (303.15 K, x2 = 0.7128) was 1277.2 ± 1 m/s, the speed of sound (303.15 K, x2 = 0.8015) was 1238.3 ± 1 m/s and the speed of sound (303.15 K, x2 = 0.9105) was 1190.4 ± 1 m/s. The mass density (303.15 K, x2 = 0) was 1009.77 ± 2 kg/m3, the mass density (303.15 K, x2 = 0.1009) was 995.55 ± 2 kg/m3 and the mass density (303.15 K, x2 = 0.1986) was 981.78 ± 2 kg/m3. The mass density (303.15 K, x2 = 0.3254) was 963.91 ± 2 kg/m3, the mass density (303.15 K, x2 = 0.4231) was 950.15 ± 2 kg/m3 and the mass density (303.15 K, x2 = 0.5008) was 939.2 ± 2 kg/m3. For the same compound, the mass density (303.15 K, x2 = 0.5895) was 926.7 ± 2 kg/m3, the mass density (303.15 K, x2 = 0.7128) was 909.32 ± 2 kg/m3 and the mass density (303.15 K, x2 = 0.8015) was 896.82 ± 2 kg/m3. It also gave a mass density (303.15 K, x2 = 0.9105) of 881.46 ± 2 kg/m3, a speed of sound (308.15 K, x2 = 0) of 1578.6 ± 1.1 m/s and a speed of sound (308.15 K, x2 = 0.1009) of 1533.4 ± 1.1 m/s. It also gave a speed of sound (308.15 K, x2 = 0.1986) of 1489.5 ± 1.1 m/s, a speed of sound (308.15 K, x2 = 0.3254) of 1432.7 ± 1.1 m/s and a speed of sound (308.15 K, x2 = 0.4231) of 1388.9 ± 1.1 m/s. The speed of sound (308.15 K, x2 = 0.5008) was 1354 ± 1.1 m/s, the speed of sound (308.15 K, x2 = 0.5895) was 1314.2 ± 1 m/s and the speed of sound (308.15 K, x2 = 0.7128) was 1258.9 ± 1 m/s. It also gave a speed of sound (308.15 K, x2 = 0.8015) of 1219.2 ± 1 m/s, a speed of sound (308.15 K, x2 = 0.9105) of 1170.3 ± 1 m/s and a mass density (308.15 K, x2 = 0) of 1006.74 ± 2 kg/m3. It also gave a mass density (308.15 K, x2 = 0.1009) of 992.28 ± 2 kg/m3, a mass density (308.15 K, x2 = 0.1986) of 978.27 ± 2 kg/m3 and a mass density (308.15 K, x2 = 0.3254) of 960.1 ± 2 kg/m3. The mass density (308.15 K, x2 = 0.4231) was 946.09 ± 2 kg/m3, the mass density (308.15 K, x2 = 0.5008) was 934.96 ± 2 kg/m3 and the mass density (308.15 K, x2 = 0.5895) was 922.24 ± 2 kg/m3. It also gave a mass density (308.15 K, x2 = 0.7128) of 904.57 ± 2 kg/m3, a mass density (308.15 K, x2 = 0.8015) of 891.85 ± 2 kg/m3 and a mass density (308.15 K, x2 = 0.9105) of 876.23 ± 2 kg/m3.
